EP0942911B1, “BENZOPYRANOPYRROLE AND BENZOPYRANOPYRIDINE ALPHA-1 ADRENERGIC COMPOUNDS” (Abbott Laboratories, priority 1996, dated 1998)
Counter-ions that a name gives are not always drawn. Like-named read-outs stand apart in the source and are kept apart here.

How the values were obtained:
Experiment in all cases: biochemical
[1] = molecular target: T1, α-1a adrenoreceptor (Bos taurus, UniProt P18130); format: binding, bovine; settings: read-out: Radioligand Binding (Ki, nM) 1a (Bovine)
T1 sequence (P18130 1-466): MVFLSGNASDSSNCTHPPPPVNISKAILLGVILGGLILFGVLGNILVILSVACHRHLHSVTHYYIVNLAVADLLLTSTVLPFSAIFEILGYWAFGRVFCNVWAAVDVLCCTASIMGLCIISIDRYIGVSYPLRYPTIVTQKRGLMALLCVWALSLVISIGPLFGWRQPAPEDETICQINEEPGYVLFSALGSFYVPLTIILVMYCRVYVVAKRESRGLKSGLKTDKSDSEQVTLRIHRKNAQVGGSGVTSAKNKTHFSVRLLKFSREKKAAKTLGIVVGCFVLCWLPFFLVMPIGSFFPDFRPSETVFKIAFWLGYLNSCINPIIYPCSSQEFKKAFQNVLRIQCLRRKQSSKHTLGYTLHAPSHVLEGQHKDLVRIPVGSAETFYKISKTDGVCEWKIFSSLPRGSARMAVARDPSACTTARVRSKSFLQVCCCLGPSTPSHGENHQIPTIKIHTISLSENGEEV
Description: (§1) The cDNA clones encoding the α-1 adrenoreceptors (α-1a, α-1b, and α-1d) were obtained from TULCO (Triangle Universities Licensing Consortium, Research Triangle Park, NC) and inserted into the eukaryotic expression vector SnaB30. In this vector, expression of the adrenoreceptor gene is under the transcriptional control of an SV40 early promoter. Positive drug selection is provided by a neomycin-resistance gene. Mouse fibroblast cells (LTK) were transfected with the α1 expression plasmids and grown in Dulbecco's modified Eagle's medium (DMEM) containing 10% fetal calf serum and 30 µM G418. Stable G418-resistant parental lines were generated, with successful expression of adrenoreceptor protein monitored using radioligand binding techniques. Stable single cell clones derived from the parental lines were screened in adrenoreceptor binding assays to identify clones having high adrenoreceptor density. Roller bottle cultures of the cloned lines were used to provide cell membranes for subsequent adrenoreceptor binding characterization studies. A cell line containing the SnaB30 vector expressing the human erythropoietin gene served as a negative control.
(§2) For adrenoreceptor binding assays, large scale membrane preparations were utilized in which 6 million cells were seeded into small (450 cm^2) Corning tissue culture roller bottles. 200 mL of DMEM containing 10% fetal calf serum and 300 µM G418 were added to each roller bottle. A 95% air / 5% CO2 gas mixture (sterile) was injected into each roller bottle prior to sealing. The bottles were then incubated at 37 °C on a roller rack for 5 days. Cells were re-fed with fresh medium after 3 days in culture.
(§3) On the fifth day of culture, growth medium was removed from cells grown in roller bottles, and the cells were washed twice with PBS (Sigma, 120 mM NaCl, 2.7 mM KCl, 10 mM Na2HPO4-NaH2PO4, pH = 7.4). Cells were detached from the roller bottles by incubating for 15 minutes at 37 °C in a Tris-EDTA solution (10 mM Tris, 100 mM NaCl, 1 mM EDTA, pH = 7.4). The cell suspension from each roller bottle was decanted into tared centrifuge tubes and kept on ice. An aliquot of each cell suspension was generally taken for cell counting. Cells were centrifuged at 3000 X G for 5 min at 2-4 °C, washed with PBS and recentrifuged. The supernatant was decanted and the pellet weighed to determine the wet weight of cells. Cells were washed a final time in 40 vol 5 mM Tris-HCl, 5 mM EDTA, pH = 7.7, and centrifuged at 40,000 X G for 10 minutes. Cells were homogenized in 10 mL of 50 mM Tris-HCl, 5 mM EDTA (pH = 7.4) and diluted to 40 mL/tube. Homogenates were centrifuged at 40,000 X G for 10 minutes. The supernatant was decanted and the pellets rehomogenized in 50 mM Tris-HCl (pH = 7.4) and centrifuged as before. The supernatant was decanted and the homogenate resuspended in 6.25 volumes (per gram wet weight) of 50 mM Tris-HCl and aliquots of the pooled homogenates frozen in liquid N2 and stored at -70 °C until the time of assay. Rat submaxillary glands were used for α-1A adrenoreceptors and were prepared essentially as described (Michel, A. D., Loury, D. N. and Whiting, R. L., Brit. J. Pharmacol. 98: 83-889 (1989)).
(§4) Receptor binding assays for α-1 adrenoreceptors were performed essentially as described by Greengrass and Bremner (Eur. J. Pharmacol. 55: 323-326 (1979)). […] Radioactivity was determined by standard liquid scintillation techniques. Data were analyzed as previously described (Hancock, A. A., Kyncl, J. J., Martin, Y. C. and DeBernardis, J. F., J. Receptor Res. 8: 23-46 (1988)).

[2] = molecular target: T2, α-1A adrenoreceptor (rat submaxillary gland) (Rattus norvegicus, UniProt P43140); format: binding; settings: read-out: Radioligand Binding (Ki, nM) 1A (Rat)
T2 sequence (P43140 1-466): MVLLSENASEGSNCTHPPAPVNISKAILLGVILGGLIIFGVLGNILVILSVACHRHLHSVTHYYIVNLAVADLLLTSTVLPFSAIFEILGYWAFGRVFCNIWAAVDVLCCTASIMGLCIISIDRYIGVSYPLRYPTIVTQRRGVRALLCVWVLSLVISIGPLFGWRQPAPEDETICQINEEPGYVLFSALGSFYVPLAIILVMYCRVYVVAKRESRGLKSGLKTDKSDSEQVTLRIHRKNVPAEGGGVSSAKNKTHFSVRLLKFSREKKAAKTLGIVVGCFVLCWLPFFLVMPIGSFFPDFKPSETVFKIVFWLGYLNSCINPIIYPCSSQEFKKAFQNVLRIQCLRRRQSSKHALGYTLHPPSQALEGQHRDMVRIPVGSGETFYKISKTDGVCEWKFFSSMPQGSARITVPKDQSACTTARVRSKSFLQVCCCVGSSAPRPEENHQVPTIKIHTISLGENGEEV
Protocol: Additionally, binding affinity against the pharrnacologically defined α-1A adrenoreceptor (rat submaxillary gland) was measured.
as §3, §4

[3] = molecular target: T3, α-1b adrenoreceptor (Mesocricetus auratus, UniProt P18841); format: binding, hamster; settings: read-out: Radioligand Binding (Ki, nM) 1b (Hamster)
T3 sequence (P18841 1-515): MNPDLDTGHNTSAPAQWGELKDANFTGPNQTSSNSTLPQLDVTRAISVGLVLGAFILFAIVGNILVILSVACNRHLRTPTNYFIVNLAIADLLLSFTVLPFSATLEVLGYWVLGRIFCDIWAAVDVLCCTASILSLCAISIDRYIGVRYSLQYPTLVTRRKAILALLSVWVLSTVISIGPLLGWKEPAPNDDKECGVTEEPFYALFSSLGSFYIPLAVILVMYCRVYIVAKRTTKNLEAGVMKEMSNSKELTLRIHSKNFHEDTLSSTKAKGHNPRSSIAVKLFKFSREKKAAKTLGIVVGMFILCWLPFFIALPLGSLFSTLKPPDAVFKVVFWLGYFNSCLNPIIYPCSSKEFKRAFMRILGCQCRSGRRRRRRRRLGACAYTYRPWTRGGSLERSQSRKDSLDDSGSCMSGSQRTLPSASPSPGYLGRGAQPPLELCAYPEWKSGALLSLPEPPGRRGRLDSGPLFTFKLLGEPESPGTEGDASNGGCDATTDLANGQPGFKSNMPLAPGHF
Description: as §1, §2, §3, §4

[4] = molecular target: T4, α-1d adrenoreceptor (Rattus norvegicus, UniProt P23944); format: binding; settings: read-out: Radioligand Binding (Ki, nM) 1d (Rat)
T4 sequence (P23944 1-561): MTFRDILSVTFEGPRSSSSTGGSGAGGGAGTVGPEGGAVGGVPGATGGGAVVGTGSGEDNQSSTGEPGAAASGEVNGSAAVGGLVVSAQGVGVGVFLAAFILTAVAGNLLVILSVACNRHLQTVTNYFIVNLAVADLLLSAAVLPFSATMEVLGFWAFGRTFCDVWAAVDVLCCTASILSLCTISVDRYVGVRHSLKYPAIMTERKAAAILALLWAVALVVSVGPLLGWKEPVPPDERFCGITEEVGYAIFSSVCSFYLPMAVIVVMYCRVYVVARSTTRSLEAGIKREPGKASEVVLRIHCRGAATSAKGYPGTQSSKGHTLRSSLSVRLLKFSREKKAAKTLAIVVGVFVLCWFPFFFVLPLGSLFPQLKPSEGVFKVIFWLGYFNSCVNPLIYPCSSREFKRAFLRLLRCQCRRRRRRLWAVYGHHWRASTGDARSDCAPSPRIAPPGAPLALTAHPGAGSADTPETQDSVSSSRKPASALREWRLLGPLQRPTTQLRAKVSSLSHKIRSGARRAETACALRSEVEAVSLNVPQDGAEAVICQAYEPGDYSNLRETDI
Description: as §1, §2, §3, §4

[5] = [3H]-prazosin radioligand, cloned receptor in LTK cell membranes
[6] = [3H]-prazosin radioligand, rat submaxillary gland membranes

Q: For `COc1ccc2c(c1)[C@@H]1CN(CCCCn3c(=O)[nH]c4c(sc5ncccc54)c3=O)C[C@@H]1CO2` (racemic) [Example 75, 3-[4-((±)-cis-8-Methoxy-1,2,3,3a,4,9b-hexahydro-[1]-benzopyrano[3,4-c]pyrrol-2-yl)butyl]-pyrido[3',2':4,5]thieno[3,2-d]pyrimidine-2,4(1H,3H)-dione dihydrochloride], which Ki [1] is on record?
A: Its Ki is 1.89 nM.

Q: What about the Ki [2] of the same compound?
A: Its Ki is 5.73 nM.

Q: What about the Ki [3] of the same compound?
A: Its Ki is 52.1 nM.

Q: What about the Ki [4] of the same compound?
A: The Ki was 18.3 nM.

Q: How did the Ki [1, 5] turn out when `COc1cccc2c1[C@@H]1CN(CCCCCn3c(=O)[nH]c4c(sc5ccccc54)c3=O)C[C@@H]1CO2` [Example 24, 3-[5-((3aR,9bR)-cis-9-Methoxy-1,2,3,3a,4,9b-hexahydro-[1]-benzopyrano[3,4-c]pyrrol-2-yl)pentyl]-[1]benzthieno[3,2-d]pyrimidine-2,4(1H,3H)-dione hydrochloride] was run?
A: The Ki was 0.616 nM.

Q: What about the Ki [2, 6] of the same compound?
A: Its Ki is 5.37 nM.

Q: And the Ki [3, 5]?
A: Its Ki is 5.56 nM.

Q: What about the Ki [4, 5] of the same compound?
A: The Ki was 4.51 nM.

Q: For `COc1cccc2c1[C@@H]1CN(CCCCn3c(=O)[nH]c4c(sc5cccnc54)c3=O)C[C@@H]1CO2` (racemic) [Example 73, 3-[4-((±)-cis-9-Methoxy-1,2,3,3a,4,9b-hexahydro-[1]-benzopyrano[3,4-c]pyrrol-2-yl)butyl]-pyrido[2',3':4,5]thieno[3,2-d]pyrimidine-2,4[1H,3H)-dione dihydrochloride], which Ki [1] is on record?
A: The Ki was 0.038 nM.

Q: And the Ki [2]?
A: The Ki was 0.087 nM.

Q: And the Ki [3]?
A: The Ki was 1.31 nM.

Q: And the Ki [4]?
A: Its Ki is 0.187 nM.

Q: With `COc1cccc2c1[C@@H]1CCN(CCCCn3c(=O)[nH]c4c(sc5nc(Cl)ccc54)c3=O)C[C@H]1CO2` [Example 102, 3-[4-((4aS,10bR)-trans-10-Methoxy-1,3,4,4a,5,10b-hexahydro-2H-[1]-benzopyrano[3,4-c]pyrido-3-yl)butyl]-7-chloro-pyrido[3',2':4,5]thieno[3,2-d]pyrimidine-2,4(1H,3H)-dione hydrochloride] as the compound, how does the Ki [1, 5] read?
A: The Ki was 0.113 nM.

Q: What about the Ki [2, 6] of the same compound?
A: The Ki was 1.89 nM.

Q: What about the Ki [3, 5] of the same compound?
A: The Ki was 6.26 nM.

Q: What about the Ki [4, 5] of the same compound?
A: Its Ki is 0.651 nM.

Q: For `COc1ccc(O)c2c1[C@@H]1CN(CCCCn3c(=O)[nH]c4c(sc5ncc(-c6ccccc6)nc54)c3=O)C[C@@H]1CO2` [Example 105, 3-[4-((3aR,9bR)-cis-6-Hydroxy-9-methoxy-1,2,3,3a,4,9b-hexahydro-[1]-benzopyrano[3,4-c]pyrrol-2-yl)butyl]-8-phenyl-pyrazino[2',3':4,5]thieno[3,2-d]pyrimidine-2,4(1H,3H)-dione], which Ki [1, 5] is on record?
A: Its Ki is 6.42 nM.

Q: What about the Ki [2, 6] of the same compound?
A: Its Ki is 26.3 nM.

Q: What about the Ki [3, 5] of the same compound?
A: Its Ki is 1620 nM.

Q: What about the Ki [4, 5] of the same compound?
A: The Ki was 55.9 nM.

Q: `COc1ccc2c(c1)[C@@H]1CN(CCn3c(=O)[nH]c4c(sc5ncccc54)c3=O)C[C@@H]1CO2` (racemic) [Example 78, 3-[2-((±)-cis-8-Methoxy-1,2,3,3a,4,9b-hexahydro-[1]-benzopyrano[3,4-c]pyrrol-2-yl)ethyl]-pyrido[3',2':4,5]thieno[3,2-d]pyrimidine-2,4(1H,3H)-dione hydrochloride] was tested. Which Ki [1] did it give?
A: The Ki was 0.122 nM.

Q: What about the Ki [2] of the same compound?
A: Its Ki is 0.297 nM.

Q: And the Ki [3]?
A: Its Ki is 1.88 nM.

Q: What about the Ki [4] of the same compound?
A: The Ki was 0.478 nM.

Q: Which Ki [1, 5] does the source give for `COc1cccc2c1[C@@H]1CN(CCCCn3c(=O)[nH]c4c(sc5ccc(-c6cccnc6)nc54)c3=O)C[C@@H]1CO2` [Example 56, 3-[4-((3aR,9bR)-cis-9-Methoxy-1,2,3,3a,4,9b-hexahydro-[1]-benzopyrano[3,4-c]pyrrol-2-yl)butyl]-8-(3-pyridyl)-pyrido[2',3';4,5]thieno[3,2-d]pyrimidine-2,4(1H,3H)-dione dihydrochloride] here?
A: The Ki was 0.078 nM.

Q: And the Ki [2, 6]?
A: The Ki was 0.614 nM.

Q: And the Ki [3, 5]?
A: Its Ki is 10.2 nM.

Q: What about the Ki [4, 5] of the same compound?
A: The Ki was 1.31 nM.

Q: What does the source list for `COc1cnc2sc3c(=O)n(CCCCN4C[C@H]5COc6cccc(OC)c6[C@@H]5C4)c(=O)[nH]c3c2c1` [Example 55, 3-[4-((3aS,9bR)-trans-9-Methoxy-1,2,3,3a,4,9b-hexahydro-[1]-benzopyrano[3,4-c]pyrrol-2-yl)butyl]-8-methoxy-pyrido[3',2':4,5]thieno[3,2-d]pyrimidine-2,4(1H,3H)-dione hydrochloride]?
A: Ki [1, 5]: 0.103 nM; Ki [2, 6]: 0.111 nM; Ki [3, 5]: 1.46 nM; Ki [4, 5]: 0.02 nM
